Assay results published in PubChem BioAssay (NCI).
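Five compound concentrations were applied to cells in 96-well plates for 48 hours; endpoints were derived by simple linear interpolation of the resulting dose-response curve. The concentration for 50% growth inhibition is given as GI50. TGI marks complete inhibition of growth.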

Experiments:
Assay in all cases: DTP human tumour cell line panel, 48 h
SF-539 CNS = test system: SF-539 CNS
TK-10 renal = test system: TK-10 renal
MDA-MB-435 = test system: MDA-MB-435
A498 renal = test system: A498 renal
CAKI-1 renal = test system: CAKI-1 renal
CCRF-CEM leukemia = test system: CCRF-CEM leukemia
NCI-H226 lung = test system: NCI-H226 lung
KM12 colon = test system: KM12 colon
HOP-92 NSCLC = test system: HOP-92 NSCLC
NCI-H522 lung = test system: NCI-H522 lung
NCI-H460 lung = test system: NCI-H460 lung
MALME-3M melanoma = test system: MALME-3M melanoma
RXF 393 renal = test system: RXF 393 renal
NCI/ADR-RES ovarian = test system: NCI/ADR-RES ovarian
SK-MEL-28 melanoma = test system: SK-MEL-28 melanoma
EKVX NSCLC = test system: EKVX NSCLC
K-562 leukemia = test system: K-562 leukemia
HT29 colon = test system: HT29 colon
IGROV1 ovarian = test system: IGROV1 ovarian
OVCAR-5 ovarian = test system: OVCAR-5 ovarian
HCT-15 colon = test system: HCT-15 colon
MCF7 breast = test system: MCF7 breast
COLO 205 colon = test system: COLO 205 colon
T-47D breast = test system: T-47D breast
A549 NSCLC = test system: A549 NSCLC
HCT-116 colon = test system: HCT-116 colon
OVCAR-3 ovarian = test system: OVCAR-3 ovarian
SNB-19 CNS = test system: SNB-19 CNS
SK-MEL-2 melanoma = test system: SK-MEL-2 melanoma
UO-31 renal = test system: UO-31 renal
786-0 renal = test system: 786-0 renal
SW-620 colon = test system: SW-620 colon
NCI-H23 lung = test system: NCI-H23 lung
UACC-62 melanoma = test system: UACC-62 melanoma
MDA-MB-231 breast = test system: MDA-MB-231 breast
HS 578T breast = test system: HS 578T breast
SK-MEL-5 melanoma = test system: SK-MEL-5 melanoma
SR leukemia = test system: SR leukemia
LOX IMVI melanoma = test system: LOX IMVI melanoma
SK-OV-3 ovarian = test system: SK-OV-3 ovarian
HOP-62 NSCLC = test system: HOP-62 NSCLC
UACC-257 melanoma = test system: UACC-257 melanoma
MDA-MB-468 breast = test system: MDA-MB-468 breast
HL-60(TB) leukemia = test system: HL-60(TB) leukemia
BT-549 breast = test system: BT-549 breast
OVCAR-4 ovarian = test system: OVCAR-4 ovarian
PC-3 prostate = test system: PC-3 prostate
SN12C renal = test system: SN12C renal
ACHN renal = test system: ACHN renal
HCC-2998 colon = test system: HCC-2998 colon
M14 melanoma = test system: M14 melanoma
DU-145 prostate = test system: DU-145 prostate
SNB-75 CNS = test system: SNB-75 CNS
MOLT-4 leukemia = test system: MOLT-4 leukemia
SF-295 CNS = test system: SF-295 CNS

[2H]C([2H])([2H])Oc1ccc2ncc(C#Cc3cncc(C(=O)Nc4ccc(CN5CCN(C)CC5)c(C(F)(F)F)c4)c3)n2n1
GI50 (SF-539 CNS): 0.112 µM
TGI (SF-539 CNS): 1.06 µM
GI50 (TK-10 renal): 3.17 µM
TGI (TK-10 renal): 7.63 µM
GI50 (MDA-MB-435): 0.321 µM
TGI (MDA-MB-435): 1.77 µM
GI50 (A498 renal): 8.64 µM
TGI (A498 renal): 27.8 µM
GI50 (CAKI-1 renal): 0.619 µM
TGI (CAKI-1 renal): 4.54 µM
GI50 (CCRF-CEM leukemia): 0.043 µM
TGI (CCRF-CEM leukemia): 3.74 µM
GI50 (NCI-H226 lung): 0.124 µM
TGI (NCI-H226 lung): 2.59 µM
GI50 (KM12 colon): 0.00942 µM
TGI (KM12 colon): 1.35 µM
GI50 (HOP-92 NSCLC): 0.173 µM
TGI (HOP-92 NSCLC): 0.833 µM
GI50 (NCI-H522 lung): 1.14 µM
TGI (NCI-H522 lung): 7.23 µM
GI50 (NCI-H460 lung): 0.239 µM
TGI (NCI-H460 lung): 1.81 µM
GI50 (MALME-3M melanoma): 0.291 µM
TGI (MALME-3M melanoma): 1.49 µM
GI50 (RXF 393 renal): 1.15 µM
TGI (RXF 393 renal): 2.5 µM
GI50 (NCI/ADR-RES ovarian): 1.18 µM
TGI (NCI/ADR-RES ovarian): 2.65 µM
GI50 (SK-MEL-28 melanoma): 1.16 µM
TGI (SK-MEL-28 melanoma): 2.41 µM
GI50 (EKVX NSCLC): 0.606 µM
TGI (EKVX NSCLC): 2.22 µM
GI50 (K-562 leukemia): 0.00942 µM
TGI (K-562 leukemia): 94.2 µM
GI50 (HT29 colon): 0.303 µM
TGI (HT29 colon): 1.41 µM
GI50 (IGROV1 ovarian): 0.581 µM
TGI (IGROV1 ovarian): 2.04 µM
GI50 (OVCAR-5 ovarian): 0.507 µM
TGI (OVCAR-5 ovarian): 1.8 µM
GI50 (HCT-15 colon): 0.387 µM
TGI (HCT-15 colon): 1.64 µM
GI50 (MCF7 breast): 0.0503 µM
TGI (MCF7 breast): 1.46 µM
GI50 (COLO 205 colon): 0.238 µM
TGI (COLO 205 colon): 0.719 µM
GI50 (T-47D breast): 12.1 µM
TGI (T-47D breast): 57.3 µM
GI50 (A549 NSCLC): 0.742 µM
TGI (A549 NSCLC): 2.37 µM
GI50 (HCT-116 colon): 0.0677 µM
TGI (HCT-116 colon): 1.24 µM
GI50 (OVCAR-3 ovarian): 1.6 µM
TGI (OVCAR-3 ovarian): 5.83 µM
GI50 (SNB-19 CNS): 1.39 µM
TGI (SNB-19 CNS): 2.64 µM
GI50 (SK-MEL-2 melanoma): 1.09 µM
TGI (SK-MEL-2 melanoma): 6.34 µM
GI50 (UO-31 renal): 1.03 µM
TGI (UO-31 renal): 2.22 µM
GI50 (786-0 renal): 1.37 µM
TGI (786-0 renal): 2.66 µM
GI50 (SW-620 colon): 0.167 µM
TGI (SW-620 colon): 1.18 µM
GI50 (NCI-H23 lung): 0.35 µM
TGI (NCI-H23 lung): 1.63 µM
GI50 (UACC-62 melanoma): 5.27 µM
TGI (UACC-62 melanoma): 21 µM
GI50 (MDA-MB-231 breast): 0.278 µM
TGI (MDA-MB-231 breast): 1.53 µM
GI50 (HS 578T breast): 0.444 µM
TGI (HS 578T breast): 6.36 µM
GI50 (SK-MEL-5 melanoma): 2.27 µM
TGI (SK-MEL-5 melanoma): 6.89 µM
GI50 (SR leukemia): 0.0606 µM
TGI (SR leukemia): 94.2 µM
GI50 (LOX IMVI melanoma): 0.446 µM
TGI (LOX IMVI melanoma): 1.8 µM
GI50 (SK-OV-3 ovarian): 4.03 µM
TGI (SK-OV-3 ovarian): 18.6 µM
GI50 (HOP-62 NSCLC): 0.656 µM
TGI (HOP-62 NSCLC): 4.54 µM
GI50 (UACC-257 melanoma): 0.995 µM
TGI (UACC-257 melanoma): 3.73 µM
GI50 (MDA-MB-468 breast): 1.2 µM
TGI (MDA-MB-468 breast): 2.95 µM
GI50 (HL-60(TB) leukemia): 0.101 µM
TGI (HL-60(TB) leukemia): 1.99 µM
GI50 (BT-549 breast): 0.833 µM
TGI (BT-549 breast): 10.4 µM
GI50 (OVCAR-4 ovarian): 1 µM
TGI (OVCAR-4 ovarian): 2.63 µM
GI50 (PC-3 prostate): 0.94 µM
TGI (PC-3 prostate): 2.35 µM
GI50 (SN12C renal): 0.498 µM
TGI (SN12C renal): 1.81 µM
GI50 (ACHN renal): 0.574 µM
TGI (ACHN renal): 11.2 µM
GI50 (HCC-2998 colon): 1.03 µM
TGI (HCC-2998 colon): 2.7 µM
GI50 (M14 melanoma): 0.377 µM
TGI (M14 melanoma): 1.62 µM
GI50 (DU-145 prostate): 0.93 µM
TGI (DU-145 prostate): 2.15 µM
GI50 (SNB-75 CNS): 1.92 µM
TGI (SNB-75 CNS): 6.09 µM
GI50 (MOLT-4 leukemia): 0.0668 µM
TGI (MOLT-4 leukemia): 2.02 µM
GI50 (SF-295 CNS): 0.839 µM
TGI (SF-295 CNS): 7.23 µM
